The source of these data is patent US20220298138A1, “ENZYME INHIBITORS” (KALVISTA PHARMACEUTICALS LIMITED, priority 2019, published 2022).

Molecules are shown by their SMILES. pIC50: −log10 of the molar value.

One test has as its target T1, Human Factor XIIa (Homo sapiens, UniProt P00748).
T1 construct: purchased Enzyme Research Laboratories
T1 sequence (P00748 373-615 limits assumed): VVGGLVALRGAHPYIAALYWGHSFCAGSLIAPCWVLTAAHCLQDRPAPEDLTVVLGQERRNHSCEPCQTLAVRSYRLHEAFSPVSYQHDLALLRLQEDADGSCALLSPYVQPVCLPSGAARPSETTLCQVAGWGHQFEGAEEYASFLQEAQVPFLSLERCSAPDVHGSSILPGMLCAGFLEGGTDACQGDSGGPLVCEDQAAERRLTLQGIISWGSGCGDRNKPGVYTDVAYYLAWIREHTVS
Put plainly: Factor XIIa inhibitory activity in vitro (fluorogenic substrate H-DPro-Phe-Arg-AFC). It is filed as biochemical. The conditions noted are these: 25° C., class symbols, read-out: Human FXIIa IC50. Here is the method:
Determination of the % Inhibition for FXIIa
Human Factor XIIa (Enzyme Research Laboratories) was incubated at 25° C. with the fluorogenic substrate H-DPro-Phe-Arg-AFC and various concentrations of the test compound. Residual enzyme activity (initial rate of reaction) was determined by measuring the change in […] at 410 nm and the IC50 value for the test compound was determined.
For the compound `Nc1nccc2cc(CNC(=O)[C@H](Cc3ccc(F)c(F)c3)NC(=O)c3ccc4cnccc4c3)ccc12` [Example 0.28], the pIC50 is 4.40 to 5.00. On to `CC1CCCC(C)N1CC(=O)N[C@@H](Cc1ccc(F)c(F)c1)C(=O)NCc1cnc2[nH]cc(Cl)c2c1` (some centres unmarked) [Example 3.101], for which the pIC50 was 5.52 to 6.00.

Turning to `C[C@@H]1CCC[C@H](C)N1CC(=O)N1CCCC[C@H]1C(=O)NCc1ccc2c(N)nccc2c1` [Example 32.03], the pIC50 was 5.52 to 6.00.

Regarding `CC(C)N[C@H](CCc1ccccc1)C(=O)N[C@@H](C)C(=O)NCC1CNc2ccc(Cl)cc2O1` (some centres unmarked) [Example 9.20], the pIC50 is 4.40 to 5.00. Consider `Nc1nccc2cc(CNC(=O)[C@H](Cc3ccc(F)c(F)c3)NC(=O)c3cc4ccccc4o3)ccc12` [Example 0.48], for which the pIC50 was 4.40 to 5.00. On the same count and under the same terms, the figure for `Nc1nccc2cc(CNC(=O)[C@H](Cc3ccc(F)c(F)c3)NC(=O)c3ccnnc3)ccc12` [Example 0.16] is 5.00 to 5.52; for `C[C@@H]1CCC[C@H](C)N1CC(=O)N[C@@H](Cc1c[nH]c2ccccc12)C(=O)NCc1ccc2c(N)nccc2c1` [Example 3.21] it is 6.55 to 7.00; for `Cc1cccnc1C(=O)N[C@@H](Cc1ccc(F)c(F)c1)C(=O)NCc1ccc2c(N)nccc2c1` [Example 0.50] it is 5.00 to 5.52. Same read-out and setting: the figure for `CC(C)(C)OC(=O)N[C@H](CCc1ccccc1)C(=O)NC(C)(C)C(=O)NCc1ccc2c(N)nccc2c1` [Example 6.03] is 4.40 to 5.00. The same measure, in the same setting: the figure for `Nc1nccc2cc(CNC(=O)[C@H](Cc3ccc(F)c(F)c3)NC(=O)c3cccc(-n4ccnc4)c3)ccc12` [Example 0.09] is 5.00 to 5.52; for `Nc1nccc2cc(CNC(=O)[C@H](Cc3ccc(F)c(F)c3)NC(=O)C3CCC(O)CC3)ccc12` (some centres unmarked) [Example 0.56] it is 4.40 to 5.00; for `COc1ncccc1C(=O)N[C@@H](Cc1ccc(F)c(F)c1)C(=O)NCc1ccc2c(N)nccc2c1` [Example 0.42] it is 4.40 to 5.00. For the compound `C[C@@H]1CCC[C@H](C)N1CC(=O)N[C@@H](Cc1ccc(F)c(F)c1)C(=O)NCc1cnc2[nH]ccc2c1` [Example 34.06], the pIC50 was 5.00 to 5.52. Turning to `Nc1nccc2cc(CNC(=O)[C@H](Cc3ccc(F)c(F)c3)NC(=O)c3cscn3)ccc12` [Example 0.33], the pIC50 is 5.00 to 5.52. For `C[C@@H]1CCC[C@H](C)N1CC(=O)N1CC[C@H](C(=O)NCc2ccc3c(N)nccc3c2)C1` [Example 32.06], the pIC50 was 4.40 to 5.00. `CCCc1cc(C(=O)N[C@@H](Cc2ccc(F)c(F)c2)C(=O)NCc2ccc3c(N)nccc3c2)nn1C` [Example 0.79]: the pIC50 was 5.00 to 5.52. In the case of `N#Cc1cccc(CC(=O)N[C@@H](Cc2ccc(F)c(F)c2)C(=O)NCc2ccc3c(N)nccc3c2)c1` [Example 3.25], the pIC50 was 4.40 to 5.00.

With `C[C@H](NC(=O)[C@@H](CCc1ccccc1)NC1CCOCC1)C(=O)NCc1ccc2[nH]cc(Cl)c2c1` [Example 9.17], the pIC50 is 5.00 to 5.52. Same read-out and setting: the figure for `Cn1nc(C(C)(C)C)cc1C(=O)N[C@@H](Cc1ccc(F)c(F)c1)C(=O)NCc1ccc2c(N)nccc2c1` [Example 0.88] is 4.40 to 5.00.

For `CC(C)N(CC(=O)N[C@@H](Cc1ccc(F)c(F)c1)C(=O)NCc1ccc2c(N)nccc2c1)C(C)C` [Example 3.09], the pIC50 was 6.00 to 6.55.

Regarding `Nc1nccc2cc(CNC(=O)[C@H](Cc3ccc(F)c(F)c3)NC(=O)c3nc4ccccc4[nH]c3=O)ccc12` [Example 0.74], the pIC50 was 4.40 to 5.00. Same read-out and setting: for `Nc1nccc2cc(CNC(=O)[C@H](Cc3ccc(F)c(F)c3)NC(=O)c3ncccn3)ccc12` [Example 0.18] the value was 4.40 to 5.00; for `C[C@@H]1CCC[C@H](C)N1CC(=O)N[C@@H](Cc1ccc(F)c(F)c1)C(=O)NCc1ccc2[nH]cnc2c1` [Example 3.103], 4.40 to 5.00; for `CC[C@H](NC(=O)CN1[C@H](C)CCC[C@@H]1C)C(=O)NCc1ccc2c(N)nccc2c1` [Example 3.22], 5.00 to 5.52. Same read-out and setting: for `Nc1nccc2cc(CNC(=O)[C@H](Cc3ccc(F)c(F)c3)NC(=O)c3ccc(-c4cncnc4)cc3)ccc12` [Example 0.27] the value was 4.40 to 5.00; for `Nc1nccc2cc(CNC(=O)[C@H](Cc3ccc(F)c(F)c3)NC(=O)c3cc(F)cc(F)c3)ccc12` [Example 0.73], 4.40 to 5.00. The same measure, in the same setting: for `CC(NC(=O)[C@@H](CCc1ccccc1)NC1CCOCC1)C(=O)NCc1cnc2[nH]cc(Cl)c2c1` (some centres unmarked) [Example 9.22] the value was 4.40 to 5.00; for `CC1CCCC(C)N1CC(=O)NCCC(=O)NCc1ccc2c(N)nccc2c1` (centres unmarked) [Example 39.01], 4.40 to 5.00; for `COc1ccc(CNC(=O)[C@H](C)NC(=O)[C@@H](CCc2ccccc2)NC(C)C)cc1Cl` [Example 9.11], 4.40 to 5.00. In the case of `CC(C)(O)CC(=O)N[C@@H](Cc1ccc(F)c(F)c1)C(=O)NCc1ccc2c(N)nccc2c1` [Example 3.28], the pIC50 was 4.40 to 5.00.

On to `CN1CCN(CC(=O)N[C@@H](Cc2ccc(F)c(F)c2)C(=O)NCc2ccc3c(N)nccc3c2)CC1` [Example 3.40], for which the pIC50 was 4.40 to 5.00. As to `C[C@H](NC(=O)[C@@H](CCc1ccccc1)NS(C)(=O)=O)C(=O)NCc1cnc2[nH]cc(Cl)c2c1` [Example 9.21], the pIC50 is 4.40 to 5.00. The same measure, in the same setting: for `C[C@H](NC(=O)[C@@H](CCc1ccccc1)NC(=O)c1ccccc1)C(=O)NCc1ccc2c(N)nccc2c1` [Example 6.26] the value was 4.40 to 5.00; for `CC1CCCC(C)N1CC(=O)N[C@@H](Cc1ccc(F)c(F)c1)C(=O)NCc1ccnc(N)c1` (some centres unmarked) [Example 3.102], 4.40 to 5.00; for `Nc1nccc2cc(CNC(=O)[C@H](Cc3ccc(F)c(F)c3)NC(=O)c3ccc4c(c3)CC=C(O)N4)ccc12` [Example 0.76], 4.40 to 5.00.

Consider `Cc1ccc(C)c(S(=O)(=O)NCC(=O)N[C@@H](Cc2ccc(F)c(F)c2)C(=O)NCc2ccc3c(N)nccc3c2)c1` [Example 55.05], for which the pIC50 was 5.52 to 6.00.

For the compound `Nc1nccc2cc(CNC(=O)[C@H](Cc3ccc(F)c(F)c3)NC(=O)c3cncnc3)ccc12` [Example 0.20], the pIC50 is 5.00 to 5.52. Turning to `CC[C@H](NC(=O)[C@@H](CCc1ccccc1)NC(=O)OC(C)(C)C)C(=O)NCc1ccc2c(N)nccc2c1` [Example 6.04], the pIC50 is 4.40 to 5.00. The same measure, in the same setting: the figure for `Cn1cc(C(=O)N[C@@H](Cc2ccc(F)c(F)c2)C(=O)NCc2ccc3c(N)nccc3c2)cn1` [Example 0.03] is 4.40 to 5.00. On to `N#Cc1cccc(C(=O)N[C@@H](Cc2ccc(F)c(F)c2)C(=O)NCc2ccc3c(N)nccc3c2)c1` [Example 0.25], for which the pIC50 was 5.00 to 5.52.

Consider `C[C@@H]1CCC[C@H](C)N1CC(=O)N[C@@H](Cc1ccc(F)cc1)C(=O)NCc1ccc2c(N)nccc2c1` [Example 3.14], for which the pIC50 is 6.55 to 7.00. Same read-out and setting: the figure for `Cc1nn(C)c(C)c1CCC(=O)N[C@@H](Cc1ccc(F)c(F)c1)C(=O)NCc1ccc2c(N)nccc2c1` [Example 20.08] is 4.40 to 5.00. As to `CC(C)c1ncc(C(=O)N[C@@H](Cc2ccc(F)c(F)c2)C(=O)NCc2ccc3c(N)nccc3c2)cn1` [Example 0.92], the pIC50 was 5.00 to 5.52. The same measure, in the same setting: the figure for `Nc1nccc2cc(CNC(=O)[C@H](Cc3ccc(F)c(F)c3)NC(=O)c3ccncn3)ccc12` [Example 0.71] is 5.00 to 5.52; for `CC1CCCC(C)N1CC(=O)N[C@@H](Cc1cccc2ccccc12)C(=O)NCc1ccc2c(N)nccc2c1` (some centres unmarked) [Example 3.02] it is 6.55 to 7.00; for `Nc1nccc2cc(CNC(=O)[C@H](Cc3ccc(F)c(F)c3)NC(=O)c3cccnc3N3CCOCC3)ccc12` [Example 0.45] it is 4.40 to 5.00.

In the case of `CC(C)N1CCC[C@@H]1C(=O)N[C@@H](Cc1ccc(F)c(F)c1)C(=O)NCc1cnc2[nH]ccc2c1` [Example 44.04], the pIC50 was 4.40 to 5.00.

Consider `CC(C)N(C)[C@H](C)C(=O)N[C@@H](Cc1ccc(F)c(F)c1)C(=O)NCc1ccc2c(N)nccc2c1` [Example 5.102], for which the pIC50 was 6.00 to 6.55. `Nc1nccc2cc(CNC(=O)[C@H](Cc3ccc(F)c(F)c3)NC(=O)Cc3nc(-c4cccnc4)n[nH]3)ccc12` [Example 3.32]: the pIC50 was 4.40 to 5.00. For the compound `Nc1nccc2cc(CNC(=O)[C@H](Cc3ccc(F)c(F)c3)NC(=O)C[C@@H]3CCCO3)ccc12` [Example 3.35], the pIC50 is 4.40 to 5.00. Still for that read-out and setting: for `C[C@@H]1CCC[C@H](C)N1CC(=O)N[C@@H](Cc1ccccc1)C(=O)NCc1ccc2c(N)nccc2c1` [Example 3.11] the value was 6.55 to 7.00; for `Nc1nccc2cc(CNC(=O)[C@H](Cc3ccc(F)c(F)c3)NC(=O)COc3cccnc3)ccc12` [Example 20.02], 4.40 to 5.00; for `Nc1nccc2cc(CNC(=O)[C@H](Cc3ccc(F)c(F)c3)NC(=O)c3ccc4ncsc4c3)ccc12` [Example 0.40], 4.40 to 5.00.

Regarding `Nc1nccc2cc(CNC(=O)[C@H](Cc3ccc(F)c(F)c3)NC(=O)c3ccc4ncccc4n3)ccc12` [Example 0.31], the pIC50 was 4.40 to 5.00. Consider `Nc1nccc2cc(CNC(=O)[C@H](Cc3ccc(F)c(F)c3)NC(=O)Cc3ccccn3)ccc12` [Example 3.34], for which the pIC50 was 4.40 to 5.00. For the compound `CNS(=O)(=O)c1cccc(C(=O)N[C@@H](Cc2ccc(F)c(F)c2)C(=O)NCc2ccc3c(N)nccc3c2)c1` [Example 0.60], the pIC50 was 5.00 to 5.52. The same measure, in the same setting: for `N#Cc1ccc(CS(=O)(=O)N[C@@H](Cc2ccc(F)c(F)c2)C(=O)NCc2ccc3c(N)nccc3c2)cc1` [Example 55.04] the value was 4.40 to 5.00; for `Nc1nccc2cc(CNC(=O)[C@H](Cc3ccc(F)c(F)c3)NC(=O)CCS(=O)(=O)c3ccccc3)ccc12` [Example 0.41], 5.00 to 5.52.

The test is the same for the next values; noted with them: 25° C., numeric bound instead of class symbol, read-out: Human FXIIa IC50.
For the compound `Cc1nc(C(F)(F)F)ccc1C(=O)N[C@@H](Cc1ccc(F)c(F)c1)C(=O)NCc1ccc2c(N)nccc2c1` [Example 0.63], the pIC50 was under 4.90.
